Ten molecules from patent US11464802B2, “3-substituted piperidine compounds for Cbl-b inhibition, and use thereof” (Nurix Therapeutics, Inc., priority 2019, dated 2022) can be followed below.

Test [1] deals with primary human total T-cells. Kind of test: Primary human total T-cell activation: CD25 surface staining, Biological Example 2. In kind it is cell-based. Conditions: 48 hours, fold change over baseline; for fold induction at 0.3 µM: inhibitor 0.3 μM; for fold induction at 1 µM: inhibitor 1 μM; for fold induction at 3 µM: inhibitor 3 μM.
Test [2] relates to primary human total T-cells. The test can be described thus: Primary human total T-cell activation: IL-2 secretion, Biological Example 2. In kind it is cell-based. Particulars: 48 hours, fold change over baseline; for fold induction at 0.3 µM: inhibitor 0.3 μM; for fold induction at 1 µM: inhibitor 1 μM; for fold induction at 3 µM: inhibitor 3 μM.
For test [3], the target named is Cbl-b (Homo sapiens (Human), UniProt Q13191). The test can be described thus: Cbl-b displacement assay (Cbl-b inhibition assay), TR-FRET probe displacement, Biological Example 1. In kind it is binding. The procedure: Candidate compounds were evaluated for their ability to bind and inhibit Cbl-b, an E3 ubiquitin-protein ligase, as evidenced by their ability to displace a fluorophore-labeled probe (Example 46) bound to Cbl-b.
The ability of candidate compounds to displace a known inhibitor and thereby inhibit Cbl-b activity was measured by monitoring the interaction of Cbl-b with a fluorophore-labeled probe in the presence of the candidate compound. A truncated variant of Cbl-b (UniProt number Q13191; SEQ ID NO:1) containing an Avitag at its N-terminus was co-expressed with BirA biotin ligase and purified using a standard protocol (see Dou et al., Nature Structural and Molecular Biology 8: 982-987, 2013; Avidity LLC).
Fluorescently-labeled inhibitor probe was synthesized and tagged with BODIPY FL (Example 46). Cbl-b displacement assays were performed in a 384-well plate at room temperature in a 10 μL reaction volume by pre-incubating 0.5 nM Cbl-b or 0.125 nM Cbl-b (final concentration, indicated as “High” and “Low”, respectively) in an assay buffer containing 20 mM HEPES pH 7.5, 150 mM NaCl, 0.01% Triton X-100, 0.01% BSA, and 0.5 mM TCEP in the presence of a candidate compound in 1% DMSO (final concentration) for 1 hour. After incubation in the presence of the candidate compound, the plate was incubated for an additional 1 hour in the presence of an approximate EC40 binding saturation consisting of 150 nM fluorescently-labeled inhibitor probe and 2 nM Streptavidin-Terbium (Cisbio) (final concentrations). Following the 1 hour incubation, the plates were read for TR-FRET signal at 520/620 nM using an Envision plate reader (Perkin Elmer).

The mark [4] stands for this setting: anti-CD3/anti-CD28 co-stimulation.
Setting [5] is: anti-CD3/anti-CD28 co-stimulation, read-out: CD25 staining CD3/CD28 1 μM.
Where [6] appears, read: anti-CD3 alone, read-out: CD25 staining CD3 1 μM.
Where [7] appears, read: anti-CD3/anti-CD28 co-stimulation, read-out: IL-2 secretion CD3/CD28 1 μM.
Where [8] appears, read: anti-CD3 alone, read-out: IL-2 secretion CD3 1 μM.
Setting [9] is: 0.5 nM Cbl-b final concentration (High), read-out: Cbl-b activity IC50 (High).
[10] abbreviates: Cbl-b concentration (High or Low) not given, read-out: IC50 values in the Cbl-b inhibition assay of Biological Example 1.
[11] abbreviates: 0.125 nM Cbl-b final concentration (Low), read-out: Cbl-b activity IC50 (Low).

pIC50: −log10 of the molar value. Read-outs that look alike come from different tables or passages of the source.

Chain of Cbl-b (Q13191 36-427): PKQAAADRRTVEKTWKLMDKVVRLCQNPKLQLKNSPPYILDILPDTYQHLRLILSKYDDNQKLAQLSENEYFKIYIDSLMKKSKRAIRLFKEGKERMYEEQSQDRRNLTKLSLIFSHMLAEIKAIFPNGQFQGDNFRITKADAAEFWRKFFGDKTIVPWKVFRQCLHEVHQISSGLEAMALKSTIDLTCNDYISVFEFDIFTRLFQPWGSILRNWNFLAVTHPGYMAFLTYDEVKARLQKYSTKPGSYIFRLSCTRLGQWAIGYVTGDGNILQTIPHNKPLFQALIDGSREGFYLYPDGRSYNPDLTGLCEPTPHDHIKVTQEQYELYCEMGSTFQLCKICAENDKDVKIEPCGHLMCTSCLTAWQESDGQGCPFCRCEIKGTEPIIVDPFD

In the case of `Cn1cnnc1CC1(c2cccc(N3Cc4c(cc(CN5CCC(F)(F)[C@H](CO)C5)cc4C(F)(F)F)C3=O)c2)COC1` [Compound 15, (S)-6-((4,4-difluoro-3-(hydroxymethyl)piperidin-1-yl)methyl)-2-(3-(3-((4-methyl-4H-1,2,4-triazol-3-yl)methyl)oxetan-3-yl)phenyl)-4-(trifluoromethyl)isoindolin-1-one], the fold induction at 0.3 µM is < 1.24 in test [1] (setting [4]) and < 10 in test [2] (setting [4]). Also, the fold induction at 1 µM in test [1] (setting [5]) was < 1.24; in test [1] (setting [6]), 1.05 to 1.14; in test [2] (setting [7]), 11 to 15; in test [2] (setting [8]), < 0.33. The fold induction at 3 µM was in the range of 1.05 to 1.14 in test [1] (anti-CD3 alone) and 0.34 to 0.66 in test [2] (anti-CD3 alone). Further, in test [3] (setting [9]), the negative logarithm of the IC50 (pIC50) (usually −log10 of the IC50, conventionally taken in molar units) was 8.30 to 9.00.

For `CC1CN(Cc2cc3c(c(C(F)(F)F)c2)CN(c2cccc(C4([C@@H](F)c5nncn5C)CC4)c2)C3=O)CCC1(F)F` (stereo partly drawn) [Compound 26, 6-((4,4-difluoro-3-methylpiperidin-1-yl)methyl)-2-(3-(1-((R)-fluoro(4-methyl-4H-1,2,4-triazol-3-yl)methyl)cyclopropyl)phenyl)-4-(trifluoromethyl)isoindolin-1-one], the negative logarithm of the IC50 (pIC50) in test [3] (setting [9]) and in test [3] (setting [10]) was 8.30 to 9.00 each time.

Consider `CCNc1cc(C2(Cc3nncn3C)COC2)cc(N2Cc3c(cc(CN4CCC(F)(F)[C@H](C)C4)nc3C3CC3)C2=O)n1` [Compound 42, (R)-4-cyclopropyl-6-((4,4-difluoro-3-methylpiperidin-1-yl)methyl)-2-(6-(ethylamino)-4-(3-((4-methyl-4H-1,2,4-triazol-3-yl)methyl)oxetan-3-yl)pyridin-2-yl)-2,3-dihydro-1H-pyrrolo[3,4-c]pyridin-1-one], for which the fold induction at 0.3 µM in test [1] (setting [4]) is > 1.39; in test [2] (setting [4]), > 15. For the same molecule, the fold induction at 1 µM in test [1] (setting [5]) is > 1.39; in test [1] (setting [6]), > 1.14; in test [2] (setting [7]), > 15; in test [2] (setting [8]) it was > 0.66. Also, the results for the fold induction at 3 µM in test [1] (anti-CD3 alone) and in test [2] (anti-CD3 alone) were > 1.14 and > 0.66, respectively. Further, the pIC50 in test [3] (setting [11]) is 8.30 to 9.00.

Take `C[C@@H]1C[C@H](C)CN(Cc2cc3c(c(C(F)(F)F)c2)CN(c2cccc(-c4c(-c5nncn5C)cnn4C)c2)C3=O)C1` [Compound 45, 6-((cis-3,5-dimethylpiperidin-1-yl)methyl)-2-(3-(1-methyl-4-(4-methyl-4H-1,2,4-triazol-3-yl)-1H-pyrazol-5-yl)phenyl)-4-(trifluoromethyl)isoindolin-1-one]: the fold induction at 0.3 µM in test [1] (setting [4]) lay within 1.25 to 1.39; in test [2] (setting [4]), 11 to 15. In addition, the fold induction at 1 µM in test [1] (setting [5]) is < 1.24; in test [1] (setting [6]) it was < 1.04; in test [2] (setting [7]), 11 to 15; in test [2] (setting [8]), 0.34 to 0.66. The fold induction at 3 µM in test [1] (anti-CD3 alone) was < 1.04; in test [2] (anti-CD3 alone) it was 0.34 to 0.66. In addition, the pIC50 in test [3] (setting [9]) and in test [3] (setting [10]) was 8.30 to 9.00 each time.

As to `Cn1cnnc1CC1(c2cccc(N3Cc4c(cc(CN5CCCC6(COC6)C5)cc4C(F)(F)F)C3=O)c2)COC1` [Compound 12, 6-((2-oxa-6-azaspiro[3.5]nonan-6-yl)methyl)-2-(3-(3-((4-methyl-4H-1,2,4-triazol-3-yl)methyl)oxetan-3-yl)phenyl)-4-(trifluoromethyl)isoindolin-1-one], the fold induction at 0.3 µM in test [1] (setting [4]) is 1.25 to 1.39; in test [2] (setting [4]), < 10. The fold induction at 1 µM was 1.25 to 1.39 in test [1] (setting [5]), < 1.04 in test [1] (setting [6]), 11 to 15 in test [2] (setting [7]) and < 0.33 in test [2] (setting [8]). For the same molecule, the fold induction at 3 µM was 1.05 to 1.14 in test [1] (anti-CD3 alone) and < 0.33 in test [2] (anti-CD3 alone). The negative logarithm of the IC50 (pIC50) in test [3] (setting [9]) and in test [3] (setting [10]) was 7.00 to 8.29 each time.

For the molecule `C[C@H](c1cc2c(c(C3CC3)n1)CN(c1cccc(C3(Cc4nncn4C)COC3)c1)C2=O)N1CCC(F)(F)[C@H](C)C1` [Compound 50, 4-cyclopropyl-6-((R)-1-((R)-4,4-difluoro-3-methylpiperidin-1-yl)ethyl)-2-(3-(3-((4-methyl-4H-1,2,4-triazol-3-yl)methyl)oxetan-3-yl)phenyl)-2,3-dihydro-1H-pyrrolo[3,4-c]pyridin-1-one], the fold induction at 0.3 µM was > 1.39 in test [1] (setting [4]) and > 15 in test [2] (setting [4]). The fold induction at 1 µM in test [1] (setting [5]) was > 1.39; in test [1] (setting [6]), > 1.14; in test [2] (setting [7]), > 15; in test [2] (setting [8]), > 0.66. Besides, the fold induction at 3 µM in test [1] (anti-CD3 alone) was > 1.14; in test [2] (anti-CD3 alone), > 0.66. Besides, the pIC50 in test [3] (setting [11]) was > 9.00.

For the molecule `C[C@@H]1CN(Cc2cc3c(c(C(F)(F)F)c2)CN(c2cc(C4(Cc5nncn5C)COC4)cc(C4CC4)n2)C3=O)CCC1(F)F` [Compound 30, (R)-2-(6-cyclopropyl-4-(3-((4-methyl-4H-1,2,4-triazol-3-yl)methyl)oxetan-3-yl)pyridin-2-yl)-6-((4,4-difluoro-3-methylpiperidin-1-yl)methyl)-4-(trifluoromethyl)isoindolin-1-one], the fold induction at 0.3 µM in test [1] (setting [4]) was < 1.24; in test [2] (setting [4]), > 15. In addition, the fold induction at 1 µM in test [1] (setting [5]) is < 1.24; in test [1] (setting [6]) it was < 1.04; in test [2] (setting [7]) it was > 15; in test [2] (setting [8]), 0.34 to 0.66. Also, the fold induction at 3 µM is < 1.04 in test [1] (anti-CD3 alone) and 0.34 to 0.66 in test [2] (anti-CD3 alone). In addition, the pIC50 in test [3] (setting [9]) and in test [3] (setting [10]) was 7.00 to 8.29 in each case.

Regarding `CC1CN(Cc2cc3c(c(C(F)(F)F)c2)CN(c2cccc(C4(Cc5nncn5C)CC4)c2)C3=O)CCC1(F)F` (stereo not shown) [Compound 24, 6-((4,4-difluoro-3-methylpiperidin-1-yl)methyl)-2-(3-(1-((4-methyl-4H-1,2,4-triazol-3-yl)methyl)cyclopropyl)phenyl)-4-(trifluoromethyl)isoindolin-1-one], the pIC50 in test [3] (setting [9]) and in test [3] (setting [10]) was > 9.00 throughout.

`CC1CN(Cc2cc3c(c(C(F)(F)F)c2)CN(c2cccc(C4([C@H](F)c5nncn5C)CC4)c2)C3=O)CCC1(F)F` (stereo partly drawn) [Compound 25, 6-((4,4-difluoro-3-methylpiperidin-1-yl)methyl)-2-(3-(1-((S)-fluoro(4-methyl-4H-1,2,4-triazol-3-yl)methyl)cyclopropyl)phenyl)-4-(trifluoromethyl)isoindolin-1-one]: the pIC50 in test [3] (setting [9]) and in test [3] (setting [10]) was 8.30 to 9.00 in each case.

In the case of `Cn1cnnc1CC1(c2cccc(N3Cc4c(cc(CN5C[C@@H](C(F)(F)F)C[C@H](C(F)(F)F)C5)cc4C(F)(F)F)C3=O)c2)COC1` (relative stereo) [Compound 20, trans-6-{[3,5-bis(trifluoromethyl)piperidin-1-yl]methyl}-2-(3-{3-[(4-methyl-1,2,4-triazol-3-yl)methyl]oxetan-3-yl}phenyl)-4-(trifluoromethyl)-3H-isoindol-1-one], the pIC50 in test [3] (setting [11]) is 8.30 to 9.00.
